Test results: patent publication US6849648B2, “Phenylene alkyne matrix metalloproteinase inhibitors” (Warner-Lambert Company, priority 2001, dated 2005)
Read-outs that look alike come from different tables or passages of the source.

Key:
[1] = molecular target: T1, MMP-1FL (full length interstitial collagenase) (Homo sapiens, UniProt P03956); assay: Thiopeptolide hydrolysis assay, full length interstitial collagenase; assay type: biochemical; settings: Table 3; full-length MMP01
T1 sequence (P03956 100-469): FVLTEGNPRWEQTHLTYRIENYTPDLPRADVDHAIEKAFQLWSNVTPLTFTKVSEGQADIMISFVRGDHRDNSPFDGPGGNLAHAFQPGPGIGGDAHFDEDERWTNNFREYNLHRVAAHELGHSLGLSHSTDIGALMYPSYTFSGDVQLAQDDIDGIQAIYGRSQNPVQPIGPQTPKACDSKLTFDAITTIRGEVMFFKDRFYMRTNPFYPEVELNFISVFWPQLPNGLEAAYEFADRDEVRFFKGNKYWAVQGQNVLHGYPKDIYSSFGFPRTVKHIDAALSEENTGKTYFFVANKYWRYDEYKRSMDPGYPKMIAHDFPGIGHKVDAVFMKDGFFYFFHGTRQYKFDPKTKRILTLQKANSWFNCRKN
Text: (§1) The assays measure the amount by which a test compound reduces the hydrolysis of a thiopeptolide substrate caused by a matrix metalloproteinase enzyme. Such assays are described in detail by Ye et al., in Biochemistry, 1992;31(45):11231-11235, which is incorporated herein by reference.
(§2) Thiopeptolide substrates show virtually no decomposition or hydrolysis in the absence of a matrix metalloproteinase enzyme. A typical thiopeptolide substrate commonly utilized for assays is Ac-Pro-Leu-Gly-thioester-Leu-Leu-Gly-OEt. A 100 μL assay mixture will contain 50 mM of 2-morpholinoethane sulfonic acid monohydrate (MES, pH 6.0) 10 mM CaCl2, 100 μM thiopeptolide substrate, and 1 mM 5,5′-dithio-bis-(2-nitro-benzoic acid) (DTNB). The thiopeptolide substrate concentration is varied from 10 to 800 μM to obtain Km and Kcat values. The change in absorbance at 405 nm is monitored on a Thermo Max microplate reader (molecular Devices, Menlo Park, Calif.) at room temperature (22° C.). The calculation of the amount of hydrolysis of the thiopeptolide substrate is based on E412=13600 m^−1 cm^−1 for the DTNB-derived product 3-carboxy-4-nitrothiophenoxide. Assays are carried out with and without matrix metalloproteinase inhibitor compounds, and the amount of hydrolysis is compared for a determination of inhibitory activity of the test compounds.
(§3) Several representative compounds have been evaluated for their ability to inhibit various matrix metalloproteinase enzymes. Table 1 below presents inhibitory activity as IC50's in micromolar for representative invention compounds. In the table, MMP-1FL refers to full length interstitial collagenase; MMP-2FL refers to full length Gelatinase A; MMP-3CD refers to the catalytic domain of stromelysin; MMP-7FL refers to full length matrilysin; MMP-9FL refers to full length Gelatinase B; MMP-13CD refers to the catalytic domain of collagenase 3; and MMP-14CD refers to the catalytic domain of MMP-14. Test compounds were evaluated at various concentrations in order to determine their respective IC50 values, the micromolar concentration of compound required to cause a 50% inhibition of the hydrolytic activity of the respective enzyme.

[2] = molecular target: T2, MMP-2FL (full length Gelatinase A) (Homo sapiens, UniProt P08253); assay: Thiopeptolide hydrolysis assay, full length Gelatinase A; assay type: biochemical; settings: Table 3; full-length MMP02
T2 sequence (P08253 110-660): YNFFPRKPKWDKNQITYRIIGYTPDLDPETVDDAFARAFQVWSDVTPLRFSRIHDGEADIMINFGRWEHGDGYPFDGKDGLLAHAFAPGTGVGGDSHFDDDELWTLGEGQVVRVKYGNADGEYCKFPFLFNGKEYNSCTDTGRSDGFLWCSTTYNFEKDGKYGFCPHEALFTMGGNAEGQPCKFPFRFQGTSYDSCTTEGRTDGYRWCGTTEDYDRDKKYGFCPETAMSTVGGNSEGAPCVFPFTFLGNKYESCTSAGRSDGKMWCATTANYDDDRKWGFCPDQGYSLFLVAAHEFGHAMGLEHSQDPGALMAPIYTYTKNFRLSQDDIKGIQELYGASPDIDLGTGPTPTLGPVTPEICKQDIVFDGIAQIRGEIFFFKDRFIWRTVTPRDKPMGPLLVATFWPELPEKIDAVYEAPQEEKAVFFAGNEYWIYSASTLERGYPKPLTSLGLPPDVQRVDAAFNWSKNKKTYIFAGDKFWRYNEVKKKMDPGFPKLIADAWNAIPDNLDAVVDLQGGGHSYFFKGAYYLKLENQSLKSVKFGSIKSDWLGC
Text: as §1, §2, §3

[3] = molecular target: MMP-3CD (catalytic domain of stromelysin) (Homo sapiens, UniProt P08254); assay: Thiopeptolide hydrolysis assay, catalytic domain of stromelysin; assay type: biochemical; settings: Table 3; MMP03 catalytic domain
Text: as §1, §2, §3

[4] = molecular target: T3, MMP-7FL (full length matrilysin) (Homo sapiens, UniProt P09237); assay: Thiopeptolide hydrolysis assay, full length matrilysin; assay type: biochemical; settings: Table 3; full-length MMP07
T3 sequence (P09237 95-267): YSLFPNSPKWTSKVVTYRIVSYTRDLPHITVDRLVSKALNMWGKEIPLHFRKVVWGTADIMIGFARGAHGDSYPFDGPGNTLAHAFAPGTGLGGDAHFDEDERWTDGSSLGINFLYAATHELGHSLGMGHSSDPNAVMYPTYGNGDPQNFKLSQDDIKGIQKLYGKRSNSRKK
Text: as §1, §2, §3

[5] = molecular target: MMP-9FL (full length Gelatinase B) (Homo sapiens, UniProt P14780); assay: Thiopeptolide hydrolysis assay, full length Gelatinase B; assay type: biochemical; settings: Table 3; full-length MMP09
Text: as §1, §2, §3

[6] = molecular target: MMP-13CD (catalytic domain of collagenase 3) (Homo sapiens, UniProt P45452); assay: Thiopeptolide hydrolysis assay, catalytic domain of collagenase 3; assay type: biochemical
Text: as §1, §2, §3

[7] = molecular target: MMP-14CD (catalytic domain of MMP-14) (Homo sapiens, UniProt P50281); assay: Thiopeptolide hydrolysis assay, catalytic domain of MMP-14; assay type: biochemical; settings: Table 3; MMP-14 catalytic domain; read-out: IC50 (μM) MMP14 (CD)
Text: as §1, §2, §3

[8] = Table 1, thiopeptolide substrate, read-out: IC50 (μM) Versus MMPs, MMP13 (CD)
[9] = Table 2, thiopeptolide substrate, read-out: MMP-13CD (IC50)
[10] = Table 3, MMP-13 catalytic domain, read-out: IC50 (μM) MMP13 (CD)

MMP-3CD (catalytic domain of stromelysin), sequence (P08254 100-272 limits assumed): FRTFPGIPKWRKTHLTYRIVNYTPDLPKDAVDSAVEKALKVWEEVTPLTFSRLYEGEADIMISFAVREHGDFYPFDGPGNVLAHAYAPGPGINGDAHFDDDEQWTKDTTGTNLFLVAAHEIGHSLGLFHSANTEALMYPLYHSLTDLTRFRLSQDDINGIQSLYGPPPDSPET
MMP-9FL (full length Gelatinase B), sequence (P14780 94-707, species assumed): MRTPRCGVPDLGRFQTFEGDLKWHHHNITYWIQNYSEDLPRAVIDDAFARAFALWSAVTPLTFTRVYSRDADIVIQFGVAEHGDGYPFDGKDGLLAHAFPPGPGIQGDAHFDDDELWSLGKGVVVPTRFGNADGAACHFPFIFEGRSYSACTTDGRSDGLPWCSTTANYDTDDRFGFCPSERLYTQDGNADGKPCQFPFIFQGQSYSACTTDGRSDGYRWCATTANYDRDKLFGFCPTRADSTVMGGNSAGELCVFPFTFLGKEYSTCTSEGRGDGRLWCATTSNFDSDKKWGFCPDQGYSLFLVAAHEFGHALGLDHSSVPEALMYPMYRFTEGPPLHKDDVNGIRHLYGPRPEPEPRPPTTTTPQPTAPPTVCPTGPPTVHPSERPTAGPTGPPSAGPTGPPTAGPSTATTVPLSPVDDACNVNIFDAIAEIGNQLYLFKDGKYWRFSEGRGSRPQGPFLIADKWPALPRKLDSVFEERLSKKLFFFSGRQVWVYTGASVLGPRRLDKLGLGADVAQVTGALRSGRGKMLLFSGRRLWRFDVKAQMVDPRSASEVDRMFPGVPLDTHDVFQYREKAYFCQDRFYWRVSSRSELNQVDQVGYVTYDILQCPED

Row | Structure (SMILES) | IC50 [1] | IC50 [2] | IC50 [3] | IC50 [4] | IC50 [5] | IC50 [6, 8] | IC50 [7] | melting point | IC50 [6, 9] | IC50 [6, 10]
1 | CN1C(=O)N(Cc2ccc(C(=O)O)cc2)S(=O)(=O)c2cc(C#CCc3ccccc3)ccc21 [Example 2, 4-[4-Methyl-1,1,3-trioxo-7-(3-phenyl-prop-1-ynyl)-3,4-dihydro-1H-1l^6-benzo[1,2,4]thiadiazin-2-ylmethyl]-benzoic acid] | > 30 µM | > 30 µM | > 10 µM | > 30 µM | > 30 µM | 0.0042 µM | > 30 µM | 208 to 209 °C |  | 
2 | O=C(O)c1ccc(CNC(=O)c2cccc(C#CCc3ccccc3)c2)cc1 [Example 6] |  |  |  |  |  |  |  |  | 0.029 µM | 
3 | N#Cc1ccc(CNC(=O)c2cccc(C#CCn3cncn3)c2)cc1 [Example 5, N-(4-Cyano-benzyl)-3-(3-[1,2,4]-triazol-1-yl-prop-1-ynyl)-benzamide] |  |  |  |  |  |  |  |  | 66 µM | 
4 | CN1C(=O)N(Cc2ccccc2)S(=O)(=O)c2cc(C#CCc3ccccc3)ccc21 [Example 1, 2-Benzyl-4-methyl-1,1-dioxo-7-(3-phenyl-prop-1ynyl)-1,4-dihydro-2H-1l^6-benzo[1,2,4]thiadiazin-3-one] | > 100 µM | > 30 µM | > 30 µM | > 30 µM | > 100 µM | 2.2 µM | > 100 µM | 125 to 127 °C |  | 
5 | O=C(O)c1ccc(CN2C(=O)Nc3ccc(C#CCc4ccccc4)cc3S2(=O)=O)cc1 [Example 17, 4-[1,1,3-Trioxo-7-(3-phenyl-prop-1-ynyl)-3,4-dihydro-1H-1λ^6-benzo[1,2,4]thiadiazin-2-ylmethyl]-benzoic acid] | > 30 µM | > 100 µM | 5.6 µM | 16 µM | > 100 µM |  | > 30 µM |  |  | 0.00517 µM
6 | O=C1Nc2ccc(C#CCc3ccccc3)cc2S(=O)(=O)N1Cc1ccccc1 [Example 3, 2-Benzyl-1,1-dioxo-7-(3-phenyl-prop-1-ynyl)-1,4-dihydro-2H-1l^6-benzo[1,2,4]thiadiazin-3-one] | > 30 µM | > 100 µM | > 30 µM | > 30 µM | > 30 µM |  | > 30 µM |  |  | 0.12 µM
7 | O=C(O)c1ccc(CN2C(=O)Nc3ccc(C#CCCc4ccccc4)cc3S2(=O)=O)cc1 [Example 19, 4-[1,1,3-Trioxo-7-(4-phenyl-but-1-ynyl)-3,4-dihydro-1H-1λ^6-benzo[1,2,4]thiadiazin-2-ylmethyl]-benzoic acid] |  |  |  |  |  |  |  |  |  | 0.079 µM
8 | N#Cc1ccc(CNC(=O)c2cccc(C#CCn3ccnn3)c2)cc1 [Example 4, N-(4-Cyano-benzyl)-3-(3-[1,2,3]-triazol-1-yl-prop-1-ynyl)-benzamide] |  |  |  |  |  |  |  |  | 100 µM | 
9 | COc1ccc(CN2C(=O)Nc3ccc(C#CCc4ccccc4)cc3S2(=O)=O)cc1 [Example 18, 2-(4-Methoxy-benzyl)-1,1-dioxo-7-(3-phenyl-prop-1-ynyl)-1,4-dihydro-2H, 1λ^6-benzo[1,2,4]thiadiazin-3-one] | > 30 µM | > 30 µM | > 30 µM | > 10 µM | > 30 µM |  | > 30 µM |  |  | 0.185 µM
10 | CN1c2ccc(C#CCc3ccccc3)cc2C(=O)N(Cc2ccc(C(=O)O)cc2)S1(=O)=O [Example 16, 4-[1-methyl-2,2,4-trioxo-6-(3-phenylprop-1-ynyl)-1,4-dihydro-2H-2λ^6-benzo[1,2,6]-thiadiazin-3-ylmethyl]benzoic acid] | > 30 µM | > 30 µM | 12 µM | > 30 µM | > 30 µM |  | > 30 µM |  |  | 0.0315 µM
11 | CN1c2ccc(C#CCc3ccccc3)cc2C(=O)N(Cc2ccc(C(=O)O)cc2)[S+]1[O-] (stereo not shown) [Example 15, 4-[1-Methyl-2,4-dioxo-6-(3-phenyl-prop-1-ynyl)-1,4-dihydro-2H-2λ^4-benzo[1,2,6]thiadiazin-3-ylmethyl]benzoic acid] | > 30 µM | > 30 µM | > 10 µM | 24 µM | > 100 µM |  | > 30 µM |  |  | 0.0104 µM
